Data: ChEMBL document CHEMBL1132795, “Stereoselective binding of an enantiomeric pair of stromelysin-1 inhibitors caused by conformational entropy factors” (Bioorg Med Chem Lett, 2000)

Assays:
[1] = Binding affinity of compound to the stromelysin-1 catalytic domain at pH 6.7, 22 degree C
[2] = Binding affinity of compound to the stromelysin-1 catalytic domain at pH 6.0, 22 degree C

Kd [1] [nM] | Kd [2] [nM] | Structure (SMILES)
679 |  | CC(C)[C@@H](NS(=O)(=O)c1ccc(-c2ccc(Br)cc2)cc1)C(=O)O
76.6 | 6.7 | CC(C)[C@H](NS(=O)(=O)c1ccc(-c2ccc(Br)cc2)cc1)C(=O)O
